Measured values reported in patent publication US10898504B2, “Substituted nucleoside analogues for use as PRMT5 inhibitors” (Janssen Pharmaceutica NV, priority 2016, dated 2021).
“And” between values parts separate entries of the source, which are not always exact repeats. Equal values may be shown once.

Columns and labels:
A549 cells = assay: PD assay (Assay 2): inhibition of nuclear symmetric Arginine dimethylation (SYM10 immunohistochemistry) in A549 cells; format: cell-based; details: individual measurements shown; for IC50: Homo sapiens, A549, PD assay in A549 cells, read-out: pIC50 Assay 2 (converted); for pIC50 Assay 2: PD assay in A549 cells
Method: EXPERIMENTAL PROCEDURE PD ASSAY (ASSAY 2)
A549 cells (ATCC, Cat #CCL-185) were cultured in Dulbecco's Modified Eagle's Medium (DMEM) (Sigma, Cat #D5796), supplemented with 10% Fetal Calf Serum (FCS)(HyClone™, Cat #SV30160.03), 100 mM Sodium Pyruvate (Sigma, Cat #S8636), 200 mM L-Glutamine (Sigma, Cat #G7513) and 50 mg/mL Gentamycing (Gibco, Cat #15750-037).
Reagents used for buffers were purchased: Dulbecco's phosphate buffered saline (DPBS) without Ca/Mg (Sigma, Cat #D8537), phosphate buffered saline (PBS) 10× (Roche, Cat #11 666 789 001), Formalin solution 10% (Sigma, HT50-1-128-4L), MeOH 100% (Sigma, Cat #32213-2.5L), Triton X-100 (Acros, Cat #215680010), Bovine Serum Albumin (BSA) (Sigma, Cat #A2153), Alexa fluor 488 goat anti-rabbit antibody (Life Technologies, Cat #A11034), HCS CellMask Deep Red Stain (Life Technologies, Cat #H32721), Hoechst Stain (Life Technologies, Cat #33258), Anti-dimethyl-Arginine, sym (SYM10) antibody (Millipore, 07-412).
Immunohistochemistry Procedure
Cells were plated at 400 cells/40 μL/well in 384 well black plates μclear bottom (Perkin Elmer) and overnight incubated at 37° C., 5% CO2. The IC50 Studies were performed using nine point dosing series ranging from 10 μM to […] for each compound. 80 nL of the respective dilution of the compounds was added using the Labcyte POD 810 (Labcyte) reaching a final DMSO concentration of 0.2% in cell culture. After an incubation period of 48 h at 37° C. and 5% CO2, cells were fixed in 10% formalin solution for 15 min at r.t. and 20 min in ice-cold MeOH, after which they were washed 3× in DPBS. Subsequently, the cells were blocked for 1 h in blocking buffer (PBS+1% BSA and 0.5% Triton X-100) and incubated overnight at 4° C. with the SYM10 antibody diluted 1/2000 in blocking buffer. The cells were washed 3× with washing buffer (PBS+0.1% Triton X-100) and incubated with the Alexa fluor 488 goat anti-rabbit antibody diluted 1/200 in blocking buffer for 1 h at r.t. Subsequently, they were washed 3× with washing buffer and incubated for 30 min at r.t. with PBS containing a 1/5000 dilution of Hoechst Stain and a 1/5000 dilution of the HCS CellMask Deep Red Stain. After a final wash with PBS, the plates were imaged using the 10×W lens of the Opera® system (Perkin Elmer Life Sciences) using following settings (values in nm):
In the above equations, the following variable names are use: […]
In the above equations, the following controls were used for normalization: […]
Low control: minimum level of symmetrically dimethylated Arginines (cells treated with reference compound at 10 μM).
High control: maximum level of symmetrically dimethylated Arginines (DMSO treated cells).
IC50 and pIC50 (−log IC50) values were calculated using the appropriate software.
pIC50 values (Co. No. means compound number; n.d. means not determined).

PRMT5-MEP50 enzyme = biological target: T1, PRMT5-MEP50 enzyme (Homo sapiens, UniProt O14744); assay: In vitro assay (Assay 1): PRMT5-MEP50 high throughput mass spectrometer assay, inhibition of SAH formation; format: biochemical; details: individual measurements shown, read-out: pIC50 Assay 1 (converted)
T1 construct: One virus expresses full length human PRMT5 with Flag-tag at N-terminus
T1 sequence (O14744 whole entry): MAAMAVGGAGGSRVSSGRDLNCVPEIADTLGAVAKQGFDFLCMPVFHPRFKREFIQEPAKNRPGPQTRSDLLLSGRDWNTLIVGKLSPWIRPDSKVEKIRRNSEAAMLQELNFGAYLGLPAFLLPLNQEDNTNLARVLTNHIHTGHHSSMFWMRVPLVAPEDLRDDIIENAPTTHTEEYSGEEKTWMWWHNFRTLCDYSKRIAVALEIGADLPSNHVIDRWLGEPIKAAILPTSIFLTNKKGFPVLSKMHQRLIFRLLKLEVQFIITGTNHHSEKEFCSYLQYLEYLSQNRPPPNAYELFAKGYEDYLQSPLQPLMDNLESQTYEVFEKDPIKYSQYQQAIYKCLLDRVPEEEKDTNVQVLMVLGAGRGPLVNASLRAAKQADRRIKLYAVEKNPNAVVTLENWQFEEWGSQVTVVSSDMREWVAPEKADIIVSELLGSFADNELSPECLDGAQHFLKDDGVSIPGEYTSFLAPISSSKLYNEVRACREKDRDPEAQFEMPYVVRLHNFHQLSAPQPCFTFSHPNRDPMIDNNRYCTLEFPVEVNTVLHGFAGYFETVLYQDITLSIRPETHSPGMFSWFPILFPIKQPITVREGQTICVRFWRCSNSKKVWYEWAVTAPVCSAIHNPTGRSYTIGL
T1 sequence (Q9BQA1 whole entry partner): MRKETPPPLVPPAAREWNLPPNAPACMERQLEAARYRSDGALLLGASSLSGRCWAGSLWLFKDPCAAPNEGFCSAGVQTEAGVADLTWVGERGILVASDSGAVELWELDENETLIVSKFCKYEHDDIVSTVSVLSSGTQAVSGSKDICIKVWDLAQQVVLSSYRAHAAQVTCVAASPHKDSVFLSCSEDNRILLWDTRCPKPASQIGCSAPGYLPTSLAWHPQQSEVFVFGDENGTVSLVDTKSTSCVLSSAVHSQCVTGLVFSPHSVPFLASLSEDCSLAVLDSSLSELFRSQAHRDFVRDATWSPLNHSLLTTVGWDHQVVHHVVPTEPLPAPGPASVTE
Source text: EXPERIMENTAL PROCEDURES IN VITRO ASSAY (ASSAY 1)
PRMT5-MEP50 enzyme was purchased from Charles River (Argenta). The enzyme complex was produced in insect cells (Sf9) infected simultaneously with two baculoviruses. One virus expresses full length human PRMT5 with Flag-tag at N-terminus, the second virus expresses full length MEP50 with His6-TEV cleavage at N-terminus. The protein was affinity purified using anti-Flag (M2) beads eluted with 3×FLAG peptide, followed by His-Select eluted with 0.5M imidazole. Eluted protein was then dialysed against tris-buffered saline (TBS) (pH 8.0) containing 20% glycerol and 3 mM dithiothreitol (DTT).
Full-length untagged human recombinant histone H2A (residues 1-130, Genbank Accession #NM_021052, MW=14.1 kDa) expressed in E. coli was purchased from Reaction Biology Corporation, Cat #HMT-11-146. Reagents used for making reaction buffer or stopping reaction were purchased including Tris base (Sigma Cat #T-1503), NaCl (Sigma Cat #RGF-3270), MgCl2 (Sigma Cat #M0250), DTT (Invitrogen Cat #15508-013) and Formic Acid (Riedel deHaen, Cat #33015)
High Throughput Mass Spectrometer Assay
PRMT5 catalyzes the sequential methylations of the terminal nitrogen atoms on the guanidine groups of arginine residues within proteins using co-substrate S-adenosyl-L-methionine (AdoMet, SAM), forming mono-methyl (MMA), symmetric-dimethyl arginine (sDMA) and S-adenosyl-L-homocysteine (AdoHcy, SAH). The enzyme activity was determined by following the product SAH formation using high throughput mass spectrometry (Agilent Rapidfire 300 System coupled to a Sciex 4000 series QTrapm triple-quad MS/MS). The reaction buffer was 20 mM Tris-HC, pH 8.5, 50 mM NaCl, 5 mM MgCl2 and 1 mM DTT. The reaction activity was stopped using 1% formic acid (final concentration).
The IC50 Studies were performed using eleven point dosing series made for each compound by serially diluted 1:2 in dimethyl sulfoxide (DMSO), with point 12 being a DMSO control. Compounds were first spotted to plates, and followed by addition of 2 μM SAM and 0.6 μM H2A (histone H2A) solution mixture. The same volume of enzyme solution was added to initiate the enzymatic reactions. The final concentrations of the reaction are at 1 μM SAM, 0.3 μM H2A and 10 nM enzyme. The reaction was incubated at 30° C. for 60 minutes (min) and then quenched by addition of formic acid to a final concentration of 1%. The inhibitions of SAH formation in the presence of compounds were calculated as a percentage of the control relative to the uninhibited reaction as a function of inhibitor concentration. The data were fit as follows: Y=Bottom+(Top−Bottom)/(1+10^((log IC50−X)*h))
where IC50 is the inhibitor concentration (same unit as X) at 50% inhibition and h is the Hill slope. Y is percent of inhibition, X is log of compound concentration. Bottom and Top are the plateaus in same units as Y.

| IC50 (A549 cells) | IC50 (PRMT5-MEP50 enzyme) | pIC50 Assay 2 (A549 cells) | SMILES |
| --- | --- | --- | --- |
| 562 nM | 51.3 nM | – | NC[C@@H]1CC(F)(F)CN1C[C@H]1O[C@@H](n2ccc3c(N)cccc32)[C@H](O)[C@@H]1O [Compound 71b] |
| ~3550 nM | 53.7 nM | – | NC[C@@H]1COCCN1C[C@H]1O[C@@H](n2ccc3c(N)ncnc32)[C@H](O)[C@@H]1O [Compound 72] |
| 2450 nM | 209 nM | – | NC[C@H]1CC(F)(F)CN1C[C@H]1O[C@@H](n2ccc3c(N)ncnc32)[C@H](O)[C@@H]1O [Compound 73b] |
| 372 nM | 37.2 nM and 35.5 nM | ~6.51 | CN1CC2(CCCN(C[C@H]3O[C@@H](n4ccc5c(N)ncnc54)[C@H](O)[C@@H]3O)C2)C1 [Compound 74] |
| > 10000 nM | 39800 nM | – | Nc1ncnc2c1ncn2[C@@H]1O[C@H](CN2CCC3(CCNCC3)C2)[C@@H](O)[C@H]1O [Compound 75] |
| – | 89.1 nM and 32.4 nM and 24.5 nM | ~5.65 and ~5.97 | Nc1ncnc2c1ncn2[C@@H]1O[C@H](CN2CCCC23CCNCC3)[C@@H](O)[C@H]1O [Compound 76] |
| > 10000 nM | 2820 nM | – | Nc1ncnc2c1ncn2[C@@H]1O[C@H](CN2CCC3(CCCN3)C2)[C@@H](O)[C@H]1O (stereo partly shown) [Compound 78] |
| > 10000 nM | 21400 nM | – | Nc1ncnc2c1ncn2[C@@H]1O[C@H](CN2CC3(CCCNC3)C2)[C@@H](O)[C@H]1O [Compound 79] |
| > 10000 nM | 3310 nM | – | Nc1ncnc2c1ncn2[C@@H]1O[C@H](CN2CCCCC23CNC3)[C@@H](O)[C@H]1O [Compound 80] |
| 8130 nM | 355 nM | – | Nc1ncnc2c1ncn2[C@@H]1O[C@H](CN2CCC23CCNCC3)[C@@H](O)[C@H]1O [Compound 81] |
| 2340 nM | 126 nM | – | Nc1ncnc2c1ncn2[C@@H]1O[C@H](CN2CCCC3(CNC3)C2)[C@@H](O)[C@H]1O [Compound 82] |
| > 10000 nM | 44700 nM | – | Nc1ncnc2c1ncn2[C@@H]1O[C@H](CN2CC3(CCCN3)C2)[C@@H](O)[C@H]1O [Compound 83] |
| > 10000 nM | 77600 nM | – | Nc1ncnc2c1ncn2[C@@H]1O[C@H](CN2CC3(CCNC3)C2)[C@@H](O)[C@H]1O [Compound 84] |
| > 10000 nM | 417 nM | – | Nc1ncnc2c1ncn2[C@@H]1O[C@H](CN2CCC3(CNC3)C2)[C@@H](O)[C@H]1O [Compound 86] |
| > 10000 nM | 2400 nM | – | Nc1ncnc2c1ncn2[C@@H]1O[C@H](CN2CCC23CCNC3)[C@@H](O)[C@H]1O (stereo partly shown) [Compound 87] |
| > 10000 nM | 46800 nM | – | Nc1ncnc2c1ncn2[C@@H]1O[C@H](CN2CC3(CCN3)C2)[C@@H](O)[C@H]1O [Compound 88] |
| > 10000 nM | 2750 nM | – | Nc1ncnc2c1ncn2[C@@H]1O[C@H](CN2CCC23CNC3)[C@@H](O)[C@H]1O [Compound 89] |

| IC50 (A549 cells) | IC50 (PRMT5-MEP50 enzyme) | pIC50 Assay 2 (A549 cells) | SMILES |
| --- | --- | --- | --- |
| > 10000 nM | 70800 nM | – | CN1CCC2(CC1)CN(C[C@H]1O[C@@H](n3cnc4c(N)ncnc43)[C@H](O)[C@@H]1O)C2 [Compound 90] |
| > 10000 nM | 1230 nM | – | Nc1ncnc2c1ncn2[C@@H]1O[C@H](CN2CCCC23CNC3)[C@@H](O)[C@H]1O [Compound 91] |
| ~1380 nM | 126 nM | – | CN1CC2(C1)CN(C[C@H]1O[C@@H](n3ccc4c(N)ncnc43)[C@H](O)[C@@H]1O)CCO2 [Compound 92] |
| ~2450 nM | 3020 nM | – | Nc1ncnc2c1ccn2[C@@H]1O[C@H](CN2CCOC3(C2)CN(Cc2ccc(Cl)cc2)C3)[C@@H](O)[C@H]1O [Compound 93] |
| ~50.1 nM | > 10000 nM | – | CC(C)C(=O)O[C@@H]1[C@H](OC(=O)C(C)C)[C@@H](CN2CCCC23CCNCC3)O[C@H]1n1ccc2c(N)ncnc21 [Compound 94] |
| – | > 10000 nM | 6.94 and 6.95 | CC(C)C(=O)O[C@@H]1[C@H](OC(=O)C(C)C)[C@@H](CN2CCCC23CCN(C)CC3)O[C@H]1n1ccc2c(N)ncnc21 [Compound 95a] |
| – | > 100000 nM | ~7.34 and 7.05 | CC(C)C(=O)O[C@@H]1[C@H](OC(=O)C(C)C)[C@@H](CN2CCCC23CCN(C)CC3)O[C@H]1n1ccc2c(N)ncnc21 [Compound 95b] |
| 20.4 nM | 631 nM | – | CC(C)C(=O)O[C@H]1[C@@H](O)[C@H](n2ccc3c(N)ncnc32)O[C@@H]1CN1CCCC12CCN(C)CC2 [Compound 96] |
| 204 nM | 174 nM | – | CC(=O)O[C@H]1[C@@H](O)[C@H](n2ccc3c(N)ncnc32)O[C@@H]1CN1CCCC12CCN(C)CC2 [Compound 99] |
| – | > 10000 nM | 6.46 | CC(C)C(=O)O[C@@H]1[C@H](OC(=O)C(C)C)[C@@H](CN2CC(F)(F)CC23CCN(C)CC3)O[C@H]1n1ccc2c(N)ncnc21 [Compound 103] |
| 1580 nM | > 10000 nM | – | CC(C)C(=O)O[C@@H]1[C@H](OC(=O)C(C)C)[C@@H](CN2CCCC23CCN(C)CC3)O[C@H]1c1ccc2c(N)ncnn12 [Compound 104] |
| 6610 nM | > 10000 nM | – | CC(C)C(=O)O[C@@H]1[C@H](OC(=O)C(C)C)[C@@H](CN2CC(F)(F)CC23CCN(C)CC3)O[C@H]1c1ccc2c(N)ncnn12 [Compound 105] |
| 19500 nM | > 10000 nM | – | CC(C)C(=O)O[C@@H]1[C@@H](CN2CC(F)(F)CC23CCN(C)CC3)C[C@@H](n2ccc3c(N)ncnc32)[C@@H]1OC(=O)C(C)C [Compound 106] |
| 126 nM | > 10000 nM | – | CC(C)C(=O)O[C@@H]1[C@H](OC(=O)C(C)C)[C@@H](CN2CC(F)(F)CC23CCNCC3)O[C@H]1c1ccc2c(N)ncnn12 [Compound 107] |
| 204 nM | 25.7 nM | – | Nc1ncnc2c1ccn2[C@@H]1O[C@H](CN2CCOCC23CCNCC3)[C@@H](O)[C@H]1O [Compound 108] |
| > 10000 nM | 2240 nM | – | Nc1ncnn2c([C@@H]3O[C@H](CN4CCOC5(CNC5)C4)[C@@H](O)[C@H]3O)ccc12 [Compound 109] |
